The text below walks through data of paper PMC6270778, “Novel Cinnamic Acid Derivatives as Antioxidant and Anticancer Agents: Design, Synthesis and Modeling Studies” (Molecules, 2014).

Assay [1] can be described thus: ABTS+ decolorization assay. As to conditions: 0.1 mM. The procedure: The ABTS^•+ is derived from the oxidation of ABTS by potassium persulfate. It is a decolorization assay. The addition of electron-donating antioxidants leads to ABTS^•+ reduction. The chemistry taking place involves the direct generation of the ABTS^•+ with no involvement of an intermediary radical.
In this assay, ethanol is used for the dilution of the ABTS^+• solution. ABTS is dissolved in water to a 7 mM and reacts with 2.45 mM […] to produce the ABTS radical cation (ABTS^+•) by allowing the mixture to stand in the dark at room temperature for 12–16 h before use. Ten μL of diluted ABTS^+• solution (734 nm) is added to 10 μL of antioxidant compounds or Trolox standards (final concentration 0–0.1 mM) in ethanol and the absorbance is measured at 30 °C exactly 1 min after the initial mixing (Table 3).

A short description of assay [2]: Superoxide radical scavenging activity (non-enzymatic, PMS/NADH, NBT method). As to conditions: 0.1 mM; no = no action under the used experimental conditions. Here is the method:
The superoxide anion radical (O2^−·) is less toxic than the hydroxyl radical, but still being one of the most known toxic ROS. Two different experimental assays are followed for the determination of superoxide anion radical scavenging activity: (i) one involves an enzymatic production of superoxide anions and (ii) the other is supported by a non- enzymatic procedure. Herein the test is performed at 0.1 mM concentration, generating superoxide anion radicals by a non-enzymatically assay (Table 3). Compound 1i presented the highest activity, followed by compound 1ii (75% and 50%, respectively).
Superoxide radicals were produced non-enzymatically by mixing PMS, NADH and air–oxygen. The nitroblue tetrazolium method was used for the estimation of the produced radicals. The reaction mixture containing compounds (0.1 mM), 3 μM PMS, 78 μM NADH, and 25 μM NBT in 19 μM phosphate buffer pH 7.4 was incubated for 2 min at room temperature. The acrylic acids were preincubated for 2 min before adding NADH (Table 4) and the absorption was recorded at 560 nm.

Assay [3] in a line: Interaction with the stable radical DPPH. Here is the method:
The novel acids were studied for the antioxidant activity by the use of the sTable 2,2-diphenyl-1-picrylhydrazyl radical (DPPH) at concentrations 0.05 and 0.1 mM after 20 and 60 min (Table 2). In the DPPH assay, the dominant chemical reaction involved is the reduction of the DPPH radical by single electron transfer SET from the antioxidant. Phenolic compounds eg. […] The compounds presented reducing abilities which ranged nearly 29% (4ii), small differences were found among the compounds with time and concentration. […] Due to steric reasons the interaction of DPPH with the tested compounds is low.
To a solution of DPPH in absolute ethanol the appropriate volume of the compounds (0.05 and 0.1 mM final concentrations) dissolved in DMSO was added. The absorbance was recorded at 517 nm after 20 and 60 min at room temperature (Table 3).
In general terms: The DPPH test is a chemical assay of radical scavenging.

A short description of assay [4]: Hydroxyl radicals scavenging activity (Fe3+/ascorbic acid system, competition with DMSO). As to conditions: 0.1 mM; no = no action under the used experimental conditions. The procedure:
Thus we evaluated our acids for their competition with DMSO for ˙OH radicals was measured, hydroxyl radicals were produced by the Fe^3+/ascorbic acid system and expressed as percent inhibition of formaldehyde formation at 0.1 mM concentration (Table 3).
The hydroxyl radicals were produced by the Fe ^3+/ascorbic acid system. EDTA (0.1 mM), Fe ^3+ (167 μM), DMSO (33 mM) in phosphate buffer (50 mM, pH 7.4), the tested compounds (0.1 mM) and ascorbic acid (10 mM) were mixed in test tubes. The solutions were incubated at 37 °C for 30 min. The reaction was stopped by CCl3COOH (17% w/v) (Table 4) and the % scavenging activity of the tested compounds for hydroxyl radicals was given.

Assay [5] is described as follows: Inhibition of linoleic acid peroxidation (AAPH). As to conditions: 0.1 mM. The source says:
For the in vitro study of the free radical production, azo compounds generating free radicals through spontaneous thermal decomposition are used. The water soluble 2,2'-azobis(2-amidinopropane) hydrochloride (AAPH) is recommended as appropriate for measuring radical-scavenging activity in vitro. The activity of the peroxyl radicals produced by the action of AAPH greatly resembles to cellular activities such as lipid peroxidation. The phenyl substituted acids presented remarkable activity at 0.1 mM concentration (84%–92%) compared to the non-substituted derivatives (20%–63%).
For initiating the free radical, 2,2'-azobis(2-amidinopropane) dihydrochloride (AAPH) is used. The final solution in the UV cuvette consisted of ten microliters of the 16 mM linoleate sodium dispersion 0.93 mL of 0.05 M phosphate buffer, pH 7.4, thermostatted at 37 °C. 50 μL of 40 mM AAPH solution was added as a free radical initiator at 37 °C under air and 10 μL of the tested compounds. The oxidation of linoleic acid sodium salt results a conjugated diene hydroperoxide. The reaction is monitored at 234 nm (Table 3).

With `O=C1O[C@H]([C@@H](O)CO)C(O)=C1O` [Ascorbic Acid, reference compound], in assay [1], the “ABTS+· (%) (±SD)” value stood at 96 ± 0.9%.
For the compound `O=C(O)/C=C/c1ccc(O)c(O)c1` [Caffeic acid, caffeic acid, reference compound], the “O2−· (%) (±SD)” value in assay [2] is recorded as 46 ± 0.5%.
As to `CC(Cc1ccc(O)c(O)c1)C(C)Cc1ccc(O)c(O)c1` (stereo not drawn) [NDGA, nordihydroguaretic acid, reference compound], the “RA % (±SD), DPPH” value in assay [3] (0.05 mM, 20 min) is 85 ± 1.6%; in assay [3] (0.05 mM, 60 min), 83 ± 1.1%; in assay [3] (0.1 mM, 20 min), 81 ± 0.8%; in assay [3] (0.1 mM, 60 min), 83 ± 0.7%.
Take `Cc1c(C)c2c(c(C)c1O)CCC(C)(C(=O)O)O2` (stereo not drawn) [Trolox, reference compound]: the “HO (%) (±SD)” value in assay [4] stood at 73 ± 1.0%. Further, the “AAPH (%) (±SD), inhibition of linoleic acid peroxidation” value in assay [5] came to 63 ± 1.3%. In assay [1], the “ABTS+· (%) (±SD)” value was determined as 88 ± 1.7%.
